Test results published in patent US9399646B2 (Genentech, Inc., priority 2010, dated 2016).

Legend:
MCF-7 cells = experiment: Breast cancer cell viability assay (CellTiter-Glo, 5 days); type: cell-based; settings: 5 days' compound exposure; for IC50: Homo sapiens, MCF7, 120 h
Procedure, shortened: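 Eleven-point semilog compound series, final 0.3-0.000003 μM, added to overnight-adhered MCF-7 cells (320/well; RPMI, 10% FBS, 20 mM HEPES) for 5 days. Viability read by CellTiter-Glo luminescence, background from medium without cells subtracted, expressed relative to untreated cells.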

ER-α in MCF-7 cells = target: T1, ER-α in MCF-7 cells (Homo sapiens, UniProt P03372); experiment: Breast cancer cell ER-α in cell western assay (SP1); type: cell-based; parameters: endogenous in cells; host or cells: MCF-7; settings: 4 or 24 hr post compound addition; for Emax: MCF7, SP1 antibody, read-out: ER-α In Cell Western Assay (SP1) Max Response; for DC50: SP1 antibody, read-out: ER-α In Cell Western Assay (SP1) IC50
T1 sequence (P03372 1-595): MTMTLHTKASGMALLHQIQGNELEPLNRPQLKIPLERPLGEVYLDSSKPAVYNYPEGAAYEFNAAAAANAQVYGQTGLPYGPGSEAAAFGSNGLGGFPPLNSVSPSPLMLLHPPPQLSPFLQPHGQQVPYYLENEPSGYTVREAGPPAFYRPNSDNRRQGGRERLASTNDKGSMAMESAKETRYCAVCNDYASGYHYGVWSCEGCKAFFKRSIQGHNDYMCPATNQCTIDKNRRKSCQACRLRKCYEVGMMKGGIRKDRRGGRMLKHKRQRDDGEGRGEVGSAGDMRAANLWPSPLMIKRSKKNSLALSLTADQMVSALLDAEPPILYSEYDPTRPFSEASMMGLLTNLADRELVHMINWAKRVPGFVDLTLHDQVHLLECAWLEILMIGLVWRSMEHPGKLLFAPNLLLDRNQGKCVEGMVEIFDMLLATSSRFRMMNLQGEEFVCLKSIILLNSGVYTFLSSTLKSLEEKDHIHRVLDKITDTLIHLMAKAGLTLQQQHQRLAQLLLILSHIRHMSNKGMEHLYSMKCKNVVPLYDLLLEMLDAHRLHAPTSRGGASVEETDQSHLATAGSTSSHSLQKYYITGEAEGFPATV
Procedure, shortened: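 ER-α protein levels were measured in MCF-7 cells after 4 or 24 hr compound exposure (final 0.3–0.000003 μM) in RPMI containing 10% charcoal-stripped FBS.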

Structure (SMILES) | MCF7 Viability Assay Max Response (MCF-7 cells) | IC50 (MCF-7 cells) [nM] | Emax (ER-α in MCF-7 cells) [%] | DC50 (ER-α in MCF-7 cells) [nM]
CC/C(=C(/c1ccc(/C=C/C(=O)NS(=O)(=O)c2ccccc2)cc1)c1ccc2[nH]ncc2c1)c1ccc(F)cc1Cl [Compound 428, (E)-3-(4-((E)-2-(2-Chloro-4-fluorophenyl)-1-(1H-indazol-5-yl)but-1-en-1-yl)phenyl)-N-(phenylsulfonyl)acrylamide] | ++ (++ = a single % value ≧ 40%) | ≤ 100 | ≥ 40 | ≤ 100
CC/C(=C(/c1ccc(/C=C/C(=O)O)cc1)c1ccc2scnc2c1)c1cccc(Oc2cnccn2)c1 [Compound 301, (E)-3-(4-((E)-1-(Benzo[d]thiazol-5-yl)-2-(3-(pyrazin-2-yloxy)phenyl)but-1-en-1-yl)phenyl)acrylic acid] | ++ (++ = a single % value ≧ 40%) | > 100 | ≥ 40 | ≤ 100
CC/C(=C(/c1ccc(/C=C/c2nn[nH]n2)cc1)c1ccc2scnc2c1)c1cscc1C [Compound 447, 5-((E)-1-(4-((E)-2-(2H-Tetrazol-5-yl)vinyl)phenyl)-2-(4-methylthiophen-3-yl)but-1-en-1-yl)benzo[d]thiazole] | ++ (++ = a single % value ≧ 40%) | ≤ 100 | ≥ 40 | ≤ 100
CC/C(=C(/c1ccc(/C=C/C(=O)O)cc1)c1cccc2[nH]ncc12)c1ccccc1Cl [Compound 22, (E)-3-(4-((E)-2-(2-Chlorophenyl)-1-(1H-indazol-4-yl)but-1-en-1-yl)phenyl)acrylic acid] | ++ (++ = a single % value ≧ 40%) | ≤ 100 | ≥ 40 | ≤ 100
CC/C(=C(/c1ccc(/C=C/C(=O)O)cc1)c1ccc2ccncc2c1)c1ccccc1 [Compound 168, (E)-3-(4-((E)-1-(Isoquinolin-7-yl)-2-phenylbut-1-en-1-yl)phenyl)acrylic acid] | ++ (++ = a single % value ≧ 40%) | > 100 | ≥ 40 | > 100
CC/C(=C(/c1ccc(/C=C/C(=O)O)cc1)c1cc(F)cc2[nH]ncc12)c1ccccc1 [Compound 86, (E)-3-(4-((E)-1-(6-Fluoro-1H-indazol-4-yl)-2-phenylbut-1-en-1-yl)phenyl)acrylic acid] | ++ (++ = a single % value ≧ 40%) | ≤ 100 | ≥ 40 | ≤ 100
CC/C(=C(/c1ccc(/C=C/C(=O)O)cc1)c1ccc2[nH]ncc2c1)c1cccc(N2CCOCC2)c1 [Compound 265, (E)-3-(4-((E)-1-(1H-Indazol-5-yl)-2-(3-morpholinophenyl)but-1-en-1-yl)phenyl)acrylic acid] | ++ (++ = a single % value ≧ 40%) | > 100 | ≥ 40 | > 100
CC/C(=C(/c1ccc(/C=C/C(=O)O)cc1)c1ccc2[nH]ncc2c1)c1ccc2nccn2c1 [Compound 260, (E)-3-(4-((E)-2-(Imidazo[1,2-a]pyridin-6-yl)-1-(1H-indazol-5-yl)but-1-en-1-yl)phenyl)acrylic acid] | + (+ = a single % value < 40%) | > 100 | < 40 | > 100
CC/C(=C(/c1ccc(/C=C/C(=O)O)cc1)c1ccc2scnc2c1)c1ccccc1C [Compound 283, (E)-3-(4-((E)-1-(Benzo[d]thiazol-5-yl)-2-(o-tolyl)but-1-en-1-yl)phenyl)acrylic acid] | ++ (++ = a single % value ≧ 40%) | ≤ 100 | ≥ 40 | ≤ 100
CC/C(=C(/c1ccc(/C=C/C(=O)O)cc1)c1ccc2nonc2c1)c1ccccc1 [Compound 137, (E)-3-(4-((E)-1-(Benzo[c][1,2,5]oxadiazol-5-yl)-2-phenylbut-1-en-1-yl)phenyl)acrylic acid] | + (+ = a single % value < 40%) | > 100 | ≥ 40 | > 100
CC/C(=C(/c1ccc(/C=C/C(=O)O)cc1)c1ccc2[nH]ncc2c1F)c1cccc(OC2CCCCC2)c1 [Compound 345, (E)-3-(4-((E)-2-(3-(Cyclohexyloxy)phenyl)-1-(4-fluoro-1H-indazol-5-yl)but-1-en-1-yl)phenyl)acrylic acid] | ++ (++ = a single % value ≧ 40%) | ≤ 100 | ≥ 40 | ≤ 100
CC/C(=C(/c1ccc(/C=C/C(=O)O)cc1)c1ccc2[nH]ncc2c1)c1ccc2sc(C)nc2c1 [Compound 273, (E)-3-(4-((E)-1-(1H-Indazol-5-yl)-2-(2-methylbenzo[d]thiazol-5-yl)but-1-en-1-yl)phenyl)acrylic acid] | ++ (++ = a single % value ≧ 40%) | ≤ 100 | ≥ 40 | ≤ 100
CC/C(=C(/c1ccc(/C=C/C(=O)O)cc1)c1ccc2[nH]ncc2c1)c1cccc(Oc2ccc(S(C)(=O)=O)nc2)c1 [Compound 380, (E)-3-(4-((E)-1-(1H-Indazol-5-yl)-2-(3-((6-(methylsulfonyl)pyridin-3-yl)oxy)phenyl)but-1-en-1-yl)phenyl)acrylic acid] | ++ (++ = a single % value ≧ 40%) | > 100 | ≥ 40 | ≤ 100
CC/C(=C(/c1ccc(/C=C/c2nn[nH]n2)cc1)c1ccc2scnc2c1)c1ccccc1 [Compound 444, 5-((E)-1-(4-((E)-2-(2H-Tetrazol-5-yl)vinyl)phenyl)-2-phenylbut-1-en-1-yl)benzo[d]thiazole] | ++ (++ = a single % value ≧ 40%) | > 100 | ≥ 40 | ≤ 100
CC/C(=C(/c1ccc(/C=C/c2nn[nH]n2)cc1)c1ccc2scnc2c1)c1ccc(F)cc1Cl [Compound 445, 5-((E)-1-(4-((E)-2-(2H-Tetrazol-5-yl)vinyl)phenyl)-2-(2-chloro-4-fluorophenyl)but-1-en-1-yl)benzo[d]thiazole] | ++ (++ = a single % value ≧ 40%) | ≤ 100 | ≥ 40 | ≤ 100
CC/C(=C(/c1ccc(/C=C/C(=O)O)cc1)c1ccc2nsnc2c1)c1ccccc1 [Compound 144, (E)-3-(4-((E)-1-(Benzo[c][1,2,5]thiadiazol-5-yl)-2-phenylbut-1-en-1-yl)phenyl)acrylic acid] | ++ (++ = a single % value ≧ 40%) | > 100 | ≥ 40 | > 100
CC/C(=C(/c1ccc(/C=C/C(=O)O)cc1)c1ccc2[nH]ncc2c1)c1cccc(Oc2ccccc2F)c1 [Compound 367, (E)-3-(4-((E)-2-(3-(2-Fluorophenoxy)phenyl)-1-(1H-indazol-5-yl)but-1-en-1-yl)phenyl)acrylic acid] | ++ (++ = a single % value ≧ 40%) | ≤ 100 | ≥ 40 | ≤ 100
CC/C(=C(/c1ccc(/C=C/C(=O)O)cc1)c1ccc2[nH]ncc2c1)c1ccc(-n2cccn2)cc1 [Compound 264, (E)-3-(4-((E)-2-(4-(1H-Pyrazol-1-yl)phenyl)-1-(1H-indazol-5-yl)but-1-en-1-yl)phenyl)acrylic acid] | ++ (++ = a single % value ≧ 40%) | > 100 | ≥ 40 | > 100
CC/C(=C(/c1ccc(/C=C/C(=O)O)cc1)c1ccc2[nH]ncc2c1)c1cc2ccccc2s1 [Compound 268, (E)-3-(4-((E)-2-(Benzo[b]thiophen-2-yl)-1-(1H-indazol-5-yl)but-1-en-1-yl)phenyl)acrylic acid] | ++ (++ = a single % value ≧ 40%) | > 100 | ≥ 40 | ≤ 100
CCCS(=O)(=O)NC(=O)/C=C/c1ccc(/C(=C(/CC)c2ccc(F)cc2Cl)c2ccc3[nH]ncc3c2)cc1 [Compound 409, (E)-3-(4-((E)-2-(2-Chloro-4-fluorophenyl)-1-(1H-indazol-5-yl)but-1-en-1-yl)phenyl)-N-(propylsulfonyl)acrylamide] | ++ (++ = a single % value ≧ 40%) | ≤ 100 | ≥ 40 | ≤ 100
CC/C(=C(/c1ccc(/C=C/C(=O)O)cc1)c1cccc2[nH]c(=O)ccc12)c1ccccc1 [Compound 102, (E)-3-(4-((E)-1-(2-Oxo-1,2-dihydroquinolin-5-yl)-2-phenylbut-1-en-1-yl)phenyl)acrylic acid] | + (+ = a single % value < 40%) | > 100 | ≥ 40 | > 100
